Values joined by “and” are separate entries in the source; they are usually repeats but may differ in a detail not shown here. Equal entries are not always repeated. “Also recorded” adds a separate entry of the source. Where two headings read alike, the source gives them in different places.
Tests used:
[1] = HPLC analysis of donor hydrolysis in mock LysAlaAcm reactions without enzyme; assay type: physicochemical; settings: mock reaction without AaT, AaT Ligation Buffer pH 8.0, 37° C., after 4 h
Procedure: The amino acid analog donor (4a-4z) was suspected to be hydrolytically unstable and was tested in mock LysAlaAcm reactions without enzyme present and then analyzed by HPLC. The mock LysAlaAcm reactions were performed as described in the LysAlaAcm Ligation Assay section; however, the AaT solution was replaced with water. Phe-A solutions were analyzed at 30 min, 1 h, and 4 h. Immediately following the reaction, the sample was diluted to 1,200 μL and injected onto the C18 HPLC column using Gradient 1. […] Additionally, 1 mM A and 1 mM Phe were injected on the HPLC to serve as standards to verify retention times. Note that the relative concentrations of 2′ and 3′ Phe-A would be different in an actual reaction where the 3′ Phe-A is preferentially consumed by AaT in the transfer reaction (Watanabe et al., 2007, Nature 449:867-871). The change in 2′:3′ ratio between 0 h and 30 min probably reflected the higher pH of the 30 min data (Taiji et al., 1983, Biochemistry 22:3220-3225).

[2] = target: T1, E. coli aminoacyl tRNA transferase (AaT) (Escherichia coli, UniProt P0A8P1); experiment: AaT-catalyzed α-casein N-terminal modification (Edman degradation, tryptic digest MALDI MS); assay type: biochemical; settings: Phe donor, additional dose at 4 h, overnight
T1 construct: made in house; host or cells: E. coli BL21-Gold (DE3), plasmid pEG6, Ni-NTA purified
Procedure: HEPES pH 8.0, 1.50 mM KO, 10 mM MgCl2) and AaT (0.05 mg). The reaction mixture was incubated at 37° C. for 12 h, AaT was removed using Ni^2+ resin (Ni-NTA Superflow, Qiagen), and then buffer exchanged four times into phosphate buffered saline (PBS, 12 mM NaH2PO4, 50 mM NaCl, 4.7 mM KCl, pH 8.0) by Spectra/Por 1 dialysis tubing (Spectrum Laboratories; Rancho Dominguez, Calif.). Azf-modified α-casein was used directly after buffer exchange into PBS. Aliquots (1 nmol) of α-casein were diluted into PBS (22 μL) containing either fluorescein-alkyne (FlAlk, 91 μM) or propargylamine (Alk, 227 μM) for copper-catalyzed azide-alkyne cycloaddition (CuAAC). […] Reactions were boiled with gel loading dye LDS (Pierce; Rockford, Ill.) for 10 min at 95° C. and analyzed by SDS-PAGE. Fluorescence images were obtained with a Geldoc (BioRAD; Hercules, Calif.) using an excitation wavelength of 302 nm for detection of fluorescein. α-Casein was also directly visualized by Coomassie Brilliant Blue staining.
α-Casein-Azf (33 or α-casein (33 μg) was digested with sequencing grade modified Trypsin (0.6 μg) in 27 μL of 25 mM ammonium bicarbonate pH 7.5 (freshly prepared). Digestions were carried out at 37° C. for 14 h. Trypsin digest aliquots (1 μL) were combined with α-cyano-4-hydroxycinnamic acid (1 μL of a saturated solution in 1:1 H2O/CH3CN with 1% TFA) and analyzed by MALDI MS. […]

[3] = target: T2, E. coli aminoacyl transferase (AaT) (Escherichia coli, UniProt P0A8P1)
Procedure: The LysAlaAcm ligation assay was used to analyze the kinetics of AaT with substrate 4a. The ligation assay was modified for ease of analysis as follows: The total reaction volume was scaled up to 590 μL and all reagents were maintained at the same concentrations as mentioned above, Five concentrations of 4a were monitored for a total reaction time of 30 min, with concentrations ranging from 0.05 to 1 mM.
Each 30 min kinetic experiment was done in triplicate with a total of fourteen 40 μL aliquots for all substrate concentrations.
Therefore, the reaction was characterized in terms of the Michaelis-Menten kinetic scheme in Equation 2.
To determine initial velocities, the primary kinetic data is fit to the hyperbolic Equation 3, which, though phenomenological, produces a high quality fit (R>0.99 for all 5 data sets). Data from the first two minutes were fit to a linear expression (Equation 4). A non-zero intercept is employed for improved quality of fit; this can be justified in terms of a rapid burst phase not captured in the 1 min resolution of this assay.
The initial velocities were then plotted as a function of Phe-A donor concentration and fit to Equation 5 to obtain kcat and KM values, where KM=(k−1+kcat)/k1 as depicted in FIG. 3B.
To characterize the enzymatic activity of AaT toward the present acyl adenosyl substrates, an HPLC assay was used to determine initial reaction rates to be fit to a standard Michaelis-Menten kinetic model.

[4] = target: T2, E. coli aminoacyl transferase (AaT); experiment: LysAlaAcm ligation assay: AaT-catalyzed transfer from aminoacyl adenosine donor to LysAlaAcm, HPLC at 325 nm; assay type: biochemical; parameters: made in house; host or cells: E. coli BL21-Gold (DE3), plasmid pEG6, Ni-NTA purified; settings: for Ligated Product Yield (%): 4 h
Procedure: Each ligation reaction, 125 μL total volume, contained the following reagents: aminoacyl adenosine donor (1 mM), recombinant His10-tagged E. coli aminoacyl transferase (2.26 μM), and LysAlaAcm (100 μM) in the AaT Ligation Buffer (50 mM HEPES pH 8.0, 150 mm KCl, 10 mM MgCl2). The reaction mixtures were incubated at 37° C. for four hours and quenched with 1% acetic acid. The proteins were extracted from the reactions via acetone precipitation. The reactions were precipitated using 4× reaction volume of acetone and cooled at −20° C. for 1 h. Next, the reactions were centrifuged at 13,200 rpm at 4° C. for 20 min to separate the reaction from precipitated protein. The supernatant was transferred to fresh 1.5 mL centrifuge tubes and allowed for acetone evaporation overnight at room temperature. After acetone evaporation, the supernatant was dried in a Speedvac (Savant, Thermo Scientific, Fisher Inc.) for 30 min to remove residual acetone. The resulting reaction volume was dissolved up to 1.2 mL using Milli-Q water and analyzed by HPLC (gradient below) to determine ligation yield by integration of separated peak intensities monitored at 325 nm. Collected HPLC fractions were characterized through MALDI MS analysis. […] Reactions using Phe-pdCpA as donor were carried out in an identical fashion (Ellman, et al., 1991, Methods Enzymol. 202:301-336).
All HPLC analyses of LysAlaAcm ligations were monitored on an Agilent HPLC using a Waters C18 column (Milford, Mass.).
All HPLC analyses of LysAlaAcm ligations were monitored as described elsewhere herein (Gradient 1).
The extent of transfer was evaluated by HPLC analysis of reactions with adenosyl donor, AaT or BpT, and an aminocoumarin-labeled reporter peptide (for AaT, LysAlaAcm was used as previously described by Tirrell and co-workers; for BpT, AspAlaAcm was used in an analogous fashion) (Connor et al., 2008, ChemBioChem 9:366-369). Monitoring LysAlaAcm or AspAlaAcm acylation in crude reaction mixtures using absorbance at 325 nm conveniently eliminates background due to other proteins and nucleic acids, although some non-natural amino acids such as naphthylalanine (Nap) and methoxycoumarinylalanine (Mcm) also absorb in this range.
To evaluate substrate scope, reactions were analyzed after 4 h, when transfer should be complete for the fully enzymatic reaction with Phe tRNA synthetase (Connor et al., 2008, ChemBioChem 9:366-369).

[5] = target: T2, E. coli aminoacyl transferase (AaT); experiment: A/AMP/ATP/pdCpA inhibition studies of ligation with Phe donor 4a; assay type: biochemical; parameters: made in house; host or cells: E. coli BL21-Gold (DE3), plasmid pEG6, Ni-NTA purified
Procedure: Each ligation reaction was performed as described elsewhere herein.
To better understand limitations on the yield from AaT reactions, the possibilities of inhibition by hydrolyzed substrate or aminoacylated product were assessed. Since the acyl adenosine donor substrate is not regenerated during the reaction (unlike the aaRS/tRNA/AaT reaction), it was hypothesized that the adenosine byproduct might inhibit further acylation by binding to AaT. To investigate this possibility, adenosine was added to the reaction at varying concentrations and monitored the reaction timecourse by fluorescence spectroscopy and by HPLC.

[6] = target: T2, E. coli aminoacyl transferase (AaT); experiment: Real time fluorometric monitoring of Nap transfer from 4d to LysAlaAcm; assay type: biochemical; parameters: made in house; host or cells: E. coli BL21-Gold (DE3), plasmid pEG6, Ni-NTA purified; settings: up to 1 mM exogenous adenosine, real time fluorescence
Procedure: Real time fluorescent monitoring of Nap addition to LysAlaAcm was carried out using reaction solutions prepared on the 500 μL scale in stirred quartz cuvettes with 1.00 cm path lengths. Reagent concentrations were as described elsewhere herein, except that donor 4d was withheld until the cuvette was placed in the fluorometer and temperature equilibrated. Reactions were then initiated by addition of 20 μL of 25 mM Nap-A (4d) stock or water (for negative controls). Fluorescence emission at 390 nm was monitored after excitation at 325 nm. Prior calibration had shown that NapLysAlaAcm (5d) concentrations could be estimated from fluorescence intensity readings (F5d) using the equation [5d]=(1−(F5d/FControl))1.39[LysAlaAcm], where fControl is the fluorescence reading of the reaction with water added instead of 4d. […]
In order to monitor conversion of LysAlaAcm to NapLysAlaAcm (5d) in real time, a fluorometric assay was designed based on intramolecular quenching of aminocoumarin fluorescence by the naphthyl ring. Equimolar solutions of LysAlaAcm and NapLysAlaAcm, as well as mixtures of the two solutions, were prepared and their fluorescence was compared as depicted in FIG. 18A. […]
The present experiment was also achieved to monitor product formation in real time based on partial quenching of coumarin fluorescence upon addition of Nap to the LysAlaAcm peptide to form 5d. […]

[7] = 100 μM LysAlaAcm, 0.05 to 1 mM donor

T2 sequence (P0A8P1 whole entry): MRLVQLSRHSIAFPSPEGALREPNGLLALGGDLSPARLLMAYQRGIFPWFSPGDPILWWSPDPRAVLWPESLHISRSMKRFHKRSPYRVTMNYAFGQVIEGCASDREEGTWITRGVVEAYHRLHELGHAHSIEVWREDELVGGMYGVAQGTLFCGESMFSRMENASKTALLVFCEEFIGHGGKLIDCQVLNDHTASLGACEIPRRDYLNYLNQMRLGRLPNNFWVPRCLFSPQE
T1 sequence (P0A8P1 whole entry): as above

## Nc1ncnc2c1ncn2[C@@H]1O[C@H](CO)[C@@H](O)[C@H]1OC(=O)[C@@H](N)Cc1ccccc1 [4a, (S)-(2R,3R,4R,5R)-2-(6-Amino-9H-purin-9-yl)-4-hydroxy-5-(hydroxymethyl)tetrahydrofuran-3-2-amino-3-phenylpropanoate]
[1]
  Donor hydrolysis: completely hydrolyzed
[2]
  Modification of α-casein N-terminus, Edman degradation: quantitative addition of Phe
[3]; [7]
  Km: 124 µM
  kcat: 1.68±0.09×10^−1 s^−1
[3]; restated in μM
  Km: 124 µM
[4]; reactions analyzed after 4 h
  Transfer to LysAlaAcm by AaT (in words): transferred efficiently
[4]; second addition of 1 mM 4a
  Conversion of LysAlaAcm after a second addition of donor: completion
[4]; single addition of 1 mM donor, 100 μM LysAlaAcm, 2.26 μM AaT, 37° C., no additive
  Ligated Product Yield (%): 92% and 92.7 ± 5.2%
[4]; single addition of donor, additive 1 mM pdCpA
  Ligated Product Yield (%): 90.4 ± 0.9%

## Nc1ncnc2c1ncn2[C@@H]1O[C@H](CO)[C@@H](O)[C@H]1O [adenosine]
[5]; 5 mM added
  Inhibition of addition from the Phe donor 4a: not inhibited
[5]; Phe donor 4a transfer reaction
  Ki: > 5 mM
[6]
  Inhibition of Nap transfer to LysAlaAcm from 4d: did not significantly inhibit; also recorded: No significant inhibition

Source: patent US9376700B2, “Methods of modifying N-termini of a peptide or protein using transferases” (The Trustees of the University of Pennsylvania, priority 2012, dated 2016)
